Measured values from patent publication US11446338B2, “Food, cosmetic and pharmaceutical formulation with an immunomodulatory and protective anti-viral effect” (priority 2018, dated 2022).

System: H1N1 influenza virus (California 2011)
Test: Prevention of mortality in immunodeficient mice infected with H1N1 influenza virus
Assay type: in vivo
Conditions: cyclophosphamide-immunodeficient mice, oral 0.2 ml daily, 10 ED90/mouse intranasally

For `CC(N)C12CC3CC(CC(C3)C1)C2` (centres unmarked) [Rimantadine], the “Percentage of surviving animals after experiment, %” value was 50% and the “The number of surviving animals after the experiment, n = 10” value was 5.
